{
  "source": "patent US9018224B2",
  "about": "“Substituted cyclopropyl compounds useful as GPR119 agonists” (Merck Sharp & Dohme Corp., priority 2011, dated 2015)",
  "data": [
    {"target": "T1, human GPR119 (Homo sapiens, UniProt Q8TDV5)", "T1 sequence (Q8TDV5 1-308 limits assumed)": "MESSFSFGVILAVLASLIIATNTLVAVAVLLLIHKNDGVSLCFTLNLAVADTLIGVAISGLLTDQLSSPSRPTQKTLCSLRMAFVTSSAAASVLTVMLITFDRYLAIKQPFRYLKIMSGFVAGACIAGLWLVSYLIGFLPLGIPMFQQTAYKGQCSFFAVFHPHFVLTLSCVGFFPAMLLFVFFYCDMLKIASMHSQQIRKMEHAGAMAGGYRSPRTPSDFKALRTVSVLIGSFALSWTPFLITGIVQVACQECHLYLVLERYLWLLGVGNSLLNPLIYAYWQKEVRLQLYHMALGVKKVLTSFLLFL", "assay": "Measurement of GPR119 signaling by cAMP (LANCE cAMP kit or HTRF) in HEK293 cells transfected with human GPR119", "assay_type": "cell-based", "conditions": "agonist cAMP response in HEK293 cells stably transfected with human GPR119; patent does not say which of the two cAMP formats (LANCE or HTRF)", "in_short": "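LANCE TR-FRET cAMP readout; detection with Eu-SA/biotin-cAMP tracer for 3 h, signal converted to cAMP via standard curve, duplicates, 4-parameter fit vs DMSO basal and internal agonist maximum.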", "units": {"EC50": "nM"}, "values": [
      {"smiles": "COCc1cnc(N2CCC([C@H]3C[C@H]3CCOc3ccc(CC(=O)N4CCC4)c(F)c3)CC2)nc1", "note": "[Example 41, 1-(azetidin-1yl)-2-(2-fluoro-4-{2 [(1S,2R)-2-{1-[5-(methoxylmethyl)pyrimidin-2yl]piperidin-4-yl}cyclopropyl]ethoxyl}phenyl)ethanone]", "EC50": 0.77},
      {"smiles": "CC1c2cccn2CCN1C(=O)Cc1ccc(OCC[C@@H]2C[C@@H]2C2CCN(c3ncc(Cl)cn3)CC2)cc1F", "note": "(stereo partly shown) [Example 174]", "EC50": 1.2},
      {"smiles": "O=C(Cc1ccc(OCC[C@@H]2C[C@@H]2C2CCN(c3ncc(Cl)cn3)CC2)cc1F)N1CCc2scnc2C1", "note": "[Example 172]", "EC50": 0.6},
      {"smiles": "COc1cnc(N2CCC([C@H]3C[C@H]3CCOc3cc(F)c(CC(=O)N4CC(F)(F)C4)c(F)c3)CC2)nc1", "note": "[Example 217]", "EC50": 0.07},
      {"smiles": "O=C(Cc1ccc(OCC[C@@H]2C[C@@H]2C2CCN(c3ncc(Cl)cn3)CC2)cc1F)N1CCn2nc(C(F)(F)F)nc2C1", "note": "[Example 134]", "EC50": 1},
      {"smiles": "COCc1cnc(N2CCC([C@H]3C[C@H]3CCOc3cc(F)c(CC(=O)N4CCCC4)c(F)c3)CC2)nc1", "note": "[Example 228]", "EC50": 0.2},
      {"smiles": "CN(C(=O)Cc1ccc(OCC[C@@H]2C[C@@H]2C2CCN(c3ncc(Cl)cn3)CC2)cc1F)C1CCOC1", "note": "(stereo partly shown) [Example 154]", "EC50": 0.41},
      {"smiles": "CCOCc1cnc(N2CCC([C@H]3C[C@H]3CCOc3ccc(CC(=O)N(C)C)c(F)c3)CC2)nc1", "note": "[Example 204]", "EC50": 1.2},
      {"smiles": "COCc1cnc(N2CCC([C@H]3C[C@H]3CCOc3ccc(CC(=O)N4CC(C)(O)C4)c(Cl)c3)CC2)nc1", "note": "[Example 31]", "EC50": 1.5},
      {"smiles": "CCc1cnc(N2CCC([C@H]3C[C@H]3CCOc3ccc(CC(=O)N4CCC4)c(OC)c3)CC2)nc1", "note": "[Example 27]", "EC50": 3.2},
      {"smiles": "CCc1cnc(N2CCC([C@H]3C[C@H]3CCOc3ccc(CC(=O)N4CCC4)c(C#N)c3)CC2)nc1", "note": "[Example 24]", "EC50": 0.4},
      {"smiles": "COCc1cnc(N2CCC([C@H]3C[C@H]3CCOc3ccc(CC(=O)N4CCC(O)CC4)c(F)c3)CC2)nc1", "note": "[Example 56]", "EC50": 3.7},
      {"smiles": "O=C(Cc1ccc(OCC[C@@H]2C[C@@H]2C2CCN(c3ncc(Cl)cn3)CC2)cc1F)N1CCn2cnnc2C1", "note": "[Example 138]", "EC50": 1.5},
      {"smiles": "CC(C)CCN(C)C(=O)Cc1ccc(OCC[C@@H]2C[C@@H]2C2CCN(c3ncc(Cl)cn3)CC2)cc1F", "note": "[Example 109]", "EC50": 10.3},
      {"smiles": "O=C(Cc1ccc(OCC[C@@H]2C[C@@H]2C2CCN(c3ncc(Cl)cn3)CC2)cc1F)N1CCc2[nH]nnc2C1", "note": "[Example 152]", "EC50": 1.9},
      {"smiles": "COC(=O)Cc1ccc(OCC[C@@H]2C[C@@H]2C2CCN(c3ncc(Cl)cn3)CC2)cc1F", "note": "[Example 61]", "EC50": 0.7},
      {"smiles": "O=C(Cc1ccc(OCC[C@@H]2C[C@@H]2C2CCN(c3ncc(Cl)cn3)CC2)cc1F)N1CCC(C(F)(F)F)n2nccc21", "note": "(stereo partly shown) [Example 195]", "EC50": 2.9},
      {"smiles": "COCc1cnc(N2CCC([C@H]3C[C@H]3CCOc3ccc(CC(=O)N4C[C@H](F)[C@@H](F)C4)c(F)c3)CC2)nc1", "note": "[Example 50]", "EC50": 1},
      {"smiles": "CC1(NC(=O)Cc2ccc(OCC[C@@H]3C[C@@H]3C3CCN(c4ncc(Cl)cn4)CC3)cc2F)CCC1", "note": "[Example 92]", "EC50": 4},
      {"smiles": "CCc1cnc(N2CCC([C@H]3C[C@H]3CCOc3ccc(CC(=O)N4CCC4)c(Cl)c3)CC2)nc1", "note": "[Example 21]", "EC50": 0.19},
      {"smiles": "O=C(Cc1ccc(OCC[C@@H]2C[C@@H]2C2CCN(c3ncc(Cl)cn3)CC2)cc1F)N1Cc2cccnc2C1", "note": "[Example 123]", "EC50": 0.78},
      {"smiles": "COC(=O)C1CN1C(=O)Cc1ccc(OCC[C@@H]2C[C@@H]2C2CCN(c3ncc(Cl)cn3)CC2)cc1F", "note": "(stereo partly shown) [Example 107]", "EC50": 8.9},
      {"smiles": "O=C(Cc1ccc(OCC[C@@H]2C[C@@H]2C2CCN(c3ncc(Cl)cn3)CC2)cc1F)N1CCCC1", "note": "[Example 85]", "EC50": 0.61},
      {"smiles": "CCc1cnc(N2CCC([C@H]3C[C@H]3CCOc3ccc(CC(=O)N4CCC4)c(F)c3)CC2)nc1", "note": "[Example 207, 1-(azetidin-1-yl)-2-[4-(2-{(1S,2R)-2-[1-(5-ethylpyrimidin-2-yl)piperidin-4-yl]cyclopropyl}ethoxy)-2-fluorophenyl]ethanone]", "EC50": 0.4},
      {"smiles": "COC1CN(C(=O)Cc2ccc(OCC[C@@H]3C[C@@H]3C3CCN(c4ncc(Cl)cn4)CC3)cc2F)C1", "note": "[Example 69]", "EC50": 0.17},
      {"smiles": "COCc1cnc(N2CCC([C@H]3C[C@H]3CCOc3ccc(CC(=O)N4CC(O)C4)cc3)CC2)nc1", "note": "[Example 7, 1-(3-hydroxyazetidin-1-yl)-2-(4-{2-[(1S,2R)-2-{1-[5-(methoxymethyl)pyrimidin-2-yl]piperidin-4-yl}cyclopropyl]ethoxy}phenyl)ethanone]", "EC50": 7.7},
      {"smiles": "O=C(Cc1ccc(OCC[C@@H]2C[C@@H]2C2CCN(c3ncc(Cl)cn3)CC2)cc1F)N1CCc2c(C3CC3)n[nH]c2C1", "note": "[Example 142]", "EC50": 3.1},
      {"smiles": "CCN(CC)C(=O)Cc1ccc(OCC[C@@H]2C[C@@H]2C2CCN(c3ncc(Cl)cn3)CC2)cc1F", "note": "[Example 98]", "EC50": 9.2},
      {"smiles": "Cc1nnc(Cc2ccc(OCC[C@@H]3C[C@@H]3C3CCN(c4ncc(Cl)cn4)CC3)cc2F)o1", "note": "[Example 244, 5-chloro-2-{4-[(1R,2S)-2-(2-{3-fluoro-4-[(5-methyl-1,3,4-oxadizol-2-yl)methyl]phenoxy}ethyl)cyclopropyl]piperidin-1-yl}pyrimidine]", "EC50": 5.1},
      {"smiles": "CCOc1cnc(N2CCC([C@H]3C[C@H]3CCOc3cc(F)c(CC(=O)N4CC(F)(F)C4)c(F)c3)CC2)nc1", "note": "[Example 231]", "EC50": 0.13},
      {"smiles": "O=C(Cc1ccc(OCC[C@@H]2C[C@@H]2C2CCN(c3ncc(Cl)cn3)CC2)cc1Cl)N1CCC1", "note": "[Example 20, 1-(azetidin-1-yl)-2-[2-chloro-4-(2-{(1S,2R)-2-[1-(5-chloropyrimidin-2-yl)piperidin-4-yl]cyclopropyl}ethoxy)phenyl]ethanone]", "EC50": 0.32},
      {"smiles": "CN(CC(N)=O)C(=O)Cc1ccc(OCC[C@@H]2C[C@@H]2C2CCN(c3ncc(Cl)cn3)CC2)cc1F", "note": "[Example 159]", "EC50": 3.7},
      {"smiles": "O=C(Cc1ccc(OCC[C@@H]2C[C@@H]2C2CCN(c3ncc(Cl)cn3)CC2)cc1F)N1CCC(F)(F)CC1", "note": "[Example 86]", "EC50": 0.8},
      {"smiles": "COCc1cnc(N2CCC([C@H]3C[C@H]3CCOc3ccc(CC(=O)N4CCOCC4)c(F)c3)CC2)nc1", "note": "[Example 46]", "EC50": 1.8},
      {"smiles": "COCc1cnc(N2CCC([C@H]3C[C@H]3CCOc3ccc(CC(=O)N4CC(F)C4)c(F)c3)CC2)nc1", "note": "[Example 43]", "EC50": 0.54},
      {"smiles": "COc1cnc(N2CCC([C@H]3C[C@H]3CCOc3cc(F)c(CC(=O)N4CC(F)C4)c(F)c3)CC2)nc1", "note": "[Example 216]", "EC50": 0.09},
      {"smiles": "CCOc1cnc(N2CCC([C@H]3C[C@H]3CCOc3cc(F)c(CC(=O)N(C)C)c(F)c3)CC2)nc1", "note": "[Example 234]", "EC50": 0.26},
      {"smiles": "O=C(Cc1ccc(OCC[C@@H]2C[C@@H]2C2CCN(c3ncc(Cl)cn3)CC2)cc1F)N1CC(F)(F)C1", "note": "[Example 71]", "EC50": 1.2},
      {"smiles": "CCc1nnc2n1CCN(C(=O)Cc1ccc(OCC[C@@H]3C[C@@H]3C3CCN(c4ncc(Cl)cn4)CC3)cc1F)C2", "note": "[Example 151]", "EC50": 4.7},
      {"smiles": "O=C(Cc1ccc(OCC[C@@H]2C[C@@H]2C2CCN(c3ncc(Cl)cn3)CC2)cc1F)N1CCc2sc(C(F)(F)F)nc2C1", "note": "[Example 186]", "EC50": 1.7}
    ]}
  ]
}
